Measured values published in ChEMBL document CHEMBL1143118, “6-Acetyl-7,7-dimethyl-5,6,7,8-tetrahydropterin is an activator of nitric oxide synthases” (Bioorg Med Chem Lett, 2008).
pEC50, pKd: −log10 of the molar value.

Legend:
[1] = test system: Aortic ring; test: Relaxation of phenyphrine-induced constriction in rat aortic rings in presence of L-NAME; format: functional, Aorta; parameters: scale not given: the % may be the effect or the level left
[2] = test system: Macrophage; test: Effect on nitric oxide production in tetrahydrobiopterin depleted mouse bone marrow macrophages at 1 uM after 72 hrs; format: functional
[3] = test system: Aortic ring; test: Relaxation of phenyphrine-induced constriction in rat aortic rings; format: functional, tissue-based; conditions: Aorta
[4] = Effect on nitric oxide production in tetrahydrobiopterin depleted pig pulmonary artery endothelial cells at 30 uM after 72 hrs; format: functional, Sus scrofa, Endothelial cell
[5] = test system: Aortic ring; test: Relaxation of phenyphrine-induced constriction in rat aortic rings at 0.3 mM relative to control; format: functional, Aorta; parameters: scale not given: the % may be the effect or the level left
[6] = molecular target: Nitric oxide synthase 1 (Homo sapiens, UniProt P29475); test: Activity of tetrahydrobiopterin free nNOS
Nitric oxide synthase 1, sequence (P29475 whole entry): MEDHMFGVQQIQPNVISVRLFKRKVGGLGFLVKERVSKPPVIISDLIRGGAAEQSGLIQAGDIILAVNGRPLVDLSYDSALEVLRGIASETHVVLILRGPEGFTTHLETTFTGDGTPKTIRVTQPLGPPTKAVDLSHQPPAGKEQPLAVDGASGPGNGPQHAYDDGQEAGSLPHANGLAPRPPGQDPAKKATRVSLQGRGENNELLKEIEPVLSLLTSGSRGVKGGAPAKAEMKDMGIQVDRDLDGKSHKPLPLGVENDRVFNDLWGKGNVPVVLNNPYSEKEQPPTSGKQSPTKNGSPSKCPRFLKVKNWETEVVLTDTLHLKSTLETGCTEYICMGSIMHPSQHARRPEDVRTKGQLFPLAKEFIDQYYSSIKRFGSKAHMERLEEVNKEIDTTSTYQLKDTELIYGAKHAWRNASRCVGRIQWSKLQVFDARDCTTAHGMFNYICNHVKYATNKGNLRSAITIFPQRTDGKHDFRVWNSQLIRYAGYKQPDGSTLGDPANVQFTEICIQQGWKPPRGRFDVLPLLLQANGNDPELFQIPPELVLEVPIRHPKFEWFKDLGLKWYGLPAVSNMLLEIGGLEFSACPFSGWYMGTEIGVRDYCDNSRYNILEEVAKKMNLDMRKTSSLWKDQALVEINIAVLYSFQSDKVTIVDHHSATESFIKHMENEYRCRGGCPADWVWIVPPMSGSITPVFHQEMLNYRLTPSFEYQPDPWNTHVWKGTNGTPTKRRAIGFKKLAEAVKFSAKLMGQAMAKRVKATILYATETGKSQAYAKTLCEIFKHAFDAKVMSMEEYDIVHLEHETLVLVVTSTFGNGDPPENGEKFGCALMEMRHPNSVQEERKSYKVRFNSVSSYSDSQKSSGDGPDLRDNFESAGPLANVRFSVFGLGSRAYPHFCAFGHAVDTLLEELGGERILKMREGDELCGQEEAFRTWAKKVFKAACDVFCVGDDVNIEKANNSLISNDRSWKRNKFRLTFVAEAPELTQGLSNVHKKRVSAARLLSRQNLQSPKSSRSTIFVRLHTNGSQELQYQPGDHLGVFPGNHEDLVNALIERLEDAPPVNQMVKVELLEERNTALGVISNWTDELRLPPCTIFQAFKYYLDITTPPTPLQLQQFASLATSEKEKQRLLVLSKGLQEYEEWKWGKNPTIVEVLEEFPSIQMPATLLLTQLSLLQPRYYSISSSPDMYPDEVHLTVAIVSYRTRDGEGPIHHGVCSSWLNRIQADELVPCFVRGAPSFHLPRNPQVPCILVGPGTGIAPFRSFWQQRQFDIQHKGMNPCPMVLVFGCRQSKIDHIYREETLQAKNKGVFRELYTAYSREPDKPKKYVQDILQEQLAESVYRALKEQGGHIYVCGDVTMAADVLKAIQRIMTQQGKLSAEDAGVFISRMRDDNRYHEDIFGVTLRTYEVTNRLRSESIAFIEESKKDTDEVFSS

pEC50 [3] | pKd [6] | Structure (SMILES) | Activity [1] | Activity [2] | Activity [4] | Activity [5]
8.00 |  | CC(=O)C1=Nc2c(nc(N)[nH]c2=O)NC1(C)C | 5.4% | 6.2 µM | 11.4 µM | 24.2%
 | 3.82 | CC(=O)C1Nc2c(nc(N)[nH]c2=O)NC1(C)C (configuration not stated) |  |  |  | 
 | 5.95 | C[C@H](O)[C@H](O)[C@H]1CNc2nc(N)[nH]c(=O)c2N1 [SAPROPTERIN] |  |  |  | 
